A word on the IC50: it is the midpoint of a concentration-inhibition curve.

The values that follow come from US11370771B2, “Inhibitors of TRPC6” (Boehringer Ingelheim International GmbH, priority 2018, dated 2022).

Molecules are shown by their SMILES.

One test addresses T1, human TRPC6 (Homo sapiens, UniProt Q9Y210).
T1 construct: expressed in transfected cells
T1 sequence (Q9Y210 1-931): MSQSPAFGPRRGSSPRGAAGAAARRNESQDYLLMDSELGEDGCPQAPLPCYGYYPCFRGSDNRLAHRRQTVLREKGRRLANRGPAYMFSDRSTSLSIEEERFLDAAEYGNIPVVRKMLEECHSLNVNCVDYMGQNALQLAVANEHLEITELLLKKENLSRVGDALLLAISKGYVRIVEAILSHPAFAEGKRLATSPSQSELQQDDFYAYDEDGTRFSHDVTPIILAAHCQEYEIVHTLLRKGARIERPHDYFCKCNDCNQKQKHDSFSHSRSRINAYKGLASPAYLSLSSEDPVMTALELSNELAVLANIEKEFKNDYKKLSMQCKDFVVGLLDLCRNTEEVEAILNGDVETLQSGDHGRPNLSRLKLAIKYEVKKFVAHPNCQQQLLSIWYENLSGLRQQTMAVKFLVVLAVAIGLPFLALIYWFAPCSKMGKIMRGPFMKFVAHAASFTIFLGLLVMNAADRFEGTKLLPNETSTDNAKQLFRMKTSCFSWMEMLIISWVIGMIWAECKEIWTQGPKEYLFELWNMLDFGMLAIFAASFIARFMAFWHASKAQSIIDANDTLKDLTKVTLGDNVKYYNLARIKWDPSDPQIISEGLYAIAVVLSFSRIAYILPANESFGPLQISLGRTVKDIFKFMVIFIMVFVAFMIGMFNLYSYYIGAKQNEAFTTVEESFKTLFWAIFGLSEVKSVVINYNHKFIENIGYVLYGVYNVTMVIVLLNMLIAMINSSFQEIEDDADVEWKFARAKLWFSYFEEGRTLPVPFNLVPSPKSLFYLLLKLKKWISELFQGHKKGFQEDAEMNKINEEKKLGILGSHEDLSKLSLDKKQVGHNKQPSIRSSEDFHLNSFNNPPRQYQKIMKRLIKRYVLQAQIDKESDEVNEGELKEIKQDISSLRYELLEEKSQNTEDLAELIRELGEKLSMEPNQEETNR
The test can be described thus: High Throughput Screening Assay Method 1 (FLIPR membrane potential dye, OAG activation, HEK293 cells expressing human TRPC6). The class given is cell-based. Conditions: antagonist effect against human TRPC6, 60 μM OAG, read-out: Fluorescence TRPC6 IC50. The source says:
This screening assay measures TRPC6 (transient receptor potential cation channel, subfamily C, member 6) ion channel activation via addition either of the commercially available DAG ligand analogue OAG (1-oleoyl-2-acetyl-sn-glycerol) or of the TRPC6 agonist 1-[1-(4,5,6,7,8-pentahydrocyclohepta[2,1-d]thiophen-2-ylcarbonyl)-4-piperidyl]-3-hydrobenzimidazol-2-one (GSK1702934A). The assay utilizes a FLIPR membrane potential (FMP) dye from Molecular Devices, which is a voltage sensitive indicator with a fluorescent quencher. Changes in membrane potential as measured by the fluorescent signal increase during membrane depolarization provide a measurement of channel activity.
The commercially available HEK293 cell line expressing human TRPC6 channel (Axxam/PerkinElmer) is scaled up in bulk and frozen in liquid nitrogen. Frozen cell stocks are thawed and re-suspended in culture media as recommended by the manufacturer supplemented with 0.5 mg/ml of geneticin to promote retention of the TRPC6 construct. Cells are plated at a density of 15,000 cells/well in Greiner 384 well poly-D-lysine coated black clear bottom plates, and incubated for 18-20 h at 37° C. and 5% CO2. To initiate the assay, the growth media is removed using a plate washer and 25 ul of a FMP dye mix is added to each well. The 4× stock FMP dye from the manufacturer is diluted 1× with assay buffer (low calcium Tyrode's assay buffer: 130 mM NaCl, 5 mM KCl, 0.15 mM CaCl2), 1 mM MgCl2, 5 mM NaHCO3, 20 mM HEPES pH 7.4) containing 36 μM BAPTA/AM. The cells are incubated at room temperature (19-22° C.) for 30 minutes. For the screening assay, 5 uL of diluted compound stock is added to each well and incubated for 15 minutes at room temperature (19-22° C.). Using the Hamamatsu FDSS6000 or FDSS7000, 10 uL of the synthetic, membrane permeant analog of 1,2 diacylglycerol (DAG), 1-oleoyl-2-acetoyl-n-glycerol (OAG), is added and fluorescent readings taken every second from 50 seconds to 3 minutes. […] Controls and blanks consisted of HEK293 TRPC6 cells that are exposed to OAG. A reference inhibitor added along with the test compound is included as part of the blanks. This inhibitor suppresses the TRPC6 channel activation. These controls set the screening window, and “hits” are defined as those compounds inhibiting the membrane depolarization caused by OAG by at least 50%. IC50 values are determined for compounds that meet these criteria by titrating compound stock at a final starting concentration of 30 μM using a 3-fold serial dilution for 11 points. Curves are generated by fitting each data set to a four-parameter logistic equation using nonlinear regression.

The next test concerns PASMC. Conditions: cited from earlier work.
The test system of another test is TRPC6. Conditions: lung tissue of IPAH patients; cited from earlier work.

As to `CC(C)c1ccc(Oc2ccc(C(=O)N3CCN(c4ccc(N)nn4)CC3)cc2)cc1` [Compound 18, 6-(4-{4-[4-(propan-2-yl)phenoxy]benzoyl}piperazin-1-yl)pyridazin-3-amine], at human TRPC6, the half-inhibitory concentration (IC50) is 1310 nM.
Consider `Nc1ccc(N2CCN(C(=O)c3ccc(Oc4ccc(C(F)(F)F)cc4)cc3)CC2)cn1` [Compound 19, 5-(4-{4-[4-(trifluoromethyl)phenoxy]benzoyl}piperazin-1-yl)pyridin-2-amine], for which the IC50 at human TRPC6 came out at 1330 nM.
As to `CCc1ccc(Oc2ccc(C(=O)N3CCN(c4ccc(N)nn4)CC3)cc2)cc1` [Compound 20, 6-{4-[4-(4-ethylphenoxy)benzoyl]piperazin-1-yl}pyridazin-3-amine], on human TRPC6, the IC50 is 1160 nM.
Still for that read-out and setting: then `Nc1ccc(N2CCN(C(=O)c3ccc(Oc4ccc(OC(F)(F)F)cc4)cc3)CC2)nn1` [Compound 21, 6-(4-{4-[4-(trifluoromethoxy)phenoxy]benzoyl}piperazin-1-yl)pyridazin-3-amine], with 191 nM; and `Nc1ccc(N2CCN(C(=O)c3ccc(Oc4ccc(C(F)(F)F)c(F)c4)cc3)CC2)nn1` [Compound 22, 6-(4-{4-[3-fluoro-4-(trifluoromethyl)phenoxy]benzoyl}piperazin-1-yl)pyridazin-3-amine], with 8880 nM; and `Nc1ccc(N2CCN(C(=O)c3ccc(Oc4ccccc4)cc3)CC2)nn1` [Compound 24, 6-[4-(4-phenoxybenzoyl)piperazin-1-yl]pyridazin-3-amine], with 199 nM.
On to `CN(C)C(=O)c1ccc(Oc2ccc(C(=O)N3CCN(c4ccc(N)nn4)CC3)cc2)cc1` [Compound 25, 4-{4-[4-(6-aminopyridazin-3-yl)piperazine-1-carbonyl]phenoxy}-N,N-dimethylbenzamide], for which the IC50 at human TRPC6 was determined as 8970 nM.
As to `Nc1ccc(N2CCN(C(=O)c3ccc(Oc4ccc(C(F)(F)F)cc4)cc3)CC2)nn1` [Compound 26, 6-(4-{4-[4-(trifluoromethyl)phenoxy]benzoyl}piperazin-1-yl)pyridazin-3-amine], at human TRPC6, the IC50 came to 3750 nM.
As to `COc1ccccc1Oc1c(NS(=O)(=O)c2ccc(C(C)(C)C)cc2)nc(-c2ncccn2)nc1OCCO` [bosentan], in the test with PASMC, the “proliferation of PASMC” value was “decreases proliferation”. Moreover, in the test with TRPC6, the “expression of TRPC6” value is listed as “decreases expression of TRPC6”.
